Experiment [1] has as its system THP-1 cells. The experiment can be described thus: LDH release (NLRP3 inflammasome-induced cytotoxicity) in THP-1 cells. The class given is cell-based, human. The note with it: for inhibition of inflammasome-induced pyroptosis: human THP-1 macrophages, overall comparison with MCC950, FIG. 7A-7C. The source says: Pyroptosis, a pro-inflammatory form of cell death, is triggered by the activation of NLRP3 inflammasome components (GSDMD and Caspase-1), leading to the release of pro-inflammatory cytokines IL-1β and IL-18, as well as damage-associated molecular patterns (DAMPs). This process elicits a cascade of inflammatory responses, which can persist if dysregulated in affected tissues. Given the significant inhibitory potential of CLM-022 against NLRP3 inflammasome and IL-1β secretion, it was proposed that CLM-022 could effectively enhance cell viability by inhibiting pyroptosis in the context of inflammation and inflammasome activation. This example illustrates a comparative study of the abilities of CLM-022 and MCC950 to protect THP-1 cells from inflammasome-induced pyroptosis.
After LPS and Nigericin treatment, THP-1 cells were treated with either CLM-022 or MCC950 over a dosage range of 0 μM to 10 μM and cell viability was determined by impermeant live/dead staining dye and flow cytometric analysis. Additionally, NLRP3 inflammasome-induced cytotoxicity was investigated by measuring the level of LDH in the conditioned media after the CLM-022 and MCC950 treatments. Further, Western blotting of samples from the THP-1 cell viability assays was carried out to determine levels of the pyroptosis-mediating molecules, GSDMD and Caspase-1.
Background: LDH in the medium is a marker of cell lysis.

The subject of experiment [2] is TNF-α secretion. Description: TNF-α secretion in BMDMs, LPS + Nigericin. The class given is cell-based, mouse. The note with it: FIG. 5B. As for the experimental part: (§1) This example illustrates a comparative study of CLM-022 and MCC950 in inhibiting NLRP3 inflammasome activity in mouse and human macrophages.
Bone marrow-derived macrophages (BMDMs) were treated with LPS (100 ng/ml) for 3 hours to induce the expression of inflammatory genes, including TNF-α, NLRP3, and pro-IL-1β. Subsequently, the BMDMs were treated with CLM-022 or MCC950 in a dose range of 0-10 μM for 30 minutes. Then, to fully activate NLRP3-dependent inflammasome activity and cytokine secretion, Nigericin (10 μM) was added to the BMDMs for an additional 30 minutes.

The test system of experiment [3] is NLRP3 inflammasome. Description: Detection of ASC complex and caspase-1 activity in THP-1 cells by Amnis imaging flow cytometry. Type of experiment: cell-based, human. As to conditions: THP-1, LPS+Nigericin. As for the experimental part: FIG. 3A shown images of western blot analysis of THP1 cells treated with LPS, and compound 1 (CLM-001) or compound 22, followed by Nigericin for NLRP3 inflammasome activation. The inflammasome ASC complex in the control cells (LPS+Nigericin) was compared with the treatment of compound 1 (CLM-001) (50 nM, 100 nM), compound 22 (CLM-022) (50 nM, 100 nM), and MCC950 (100 nM, 200 nM). FLICA (green) represents active caspase-1, ASC (red) complex is shown as a red speckle near the nucleus membrane, and DAPI stain for nucleus (blue) captured in the AMNIS analysis. FIG. 3B depicts the cell numbers stained as ASC+ (red) and FLICA+ (green) in the AMNIS were counted in order to compare the level of NLRP3 inflammasome activity in the cells treated as indicated (left). The ASC+ and FLICA+ cells were also plotted as a percentage of total cell count (right). […]
Amnis Imaging flow cytometry (Luminex Co.) is a high-throughput, single-cell, fluorescence-based image analysis method which can detect inflammasome by acquiring images of cellular distribution of ASC complex and active caspase-1. […] The treated cells were subjected to ASC staining and visualization of active caspase-1 using FLICA, a caspase-1 substrate exerting fluorescence upon cleavage. Finally, the ASC+/FLICA+ cells were counted as THP-1 cells with active NLRP3 inflammasome complex.
Background: Flow cytometry measures light scatter and fluorescence of single cells or particles in a stream.

The subject of experiment [4] is NF-kB target proteins iNOS, COX2, NLRP3, and IL-1β. Description: LPS-induced NF-kB target protein expression in BMDCs (western blot). The note with it: BMDCs, 10, 25, 50 nM, LPS (500 ng/ml), FIG. 1C. The class given is cell-based. As for the experimental part: FIG. 1A depicts plots of relative NF-κB luciferase activity (RLU) for compound 22 and compound 1 (also referred to as “CLM-001”) assayed at 8-point concentrations (10 μM, 5 μM, […], 1.25 μM, 0.63 μM, 0.31 μM, 0.16 μM, […], and 0 μM). FIG. 1B depicts plots of the inhibitory concentrations (IC50) for compounds 22 (CLM-022) and 1 (CLM-001).
LPS-induced NF-kB target protein expression: Bone marrow-derived dendritic cells (BMDCs) were pre-treated with compound 22 or compound 1 at three concentrations (10 nM, 25 nM, 50 nM) for an hour and then treated overnight with LPS (500 ng/ml). The next day, the cells were subjected to western blotting for iNOS, COX2, NLRP3, and IL-1β.
(A western blot detects proteins with antibodies after separation by electrophoresis.)

In experiment [5] the test system is TNF-α secretion. The experiment can be described thus: TNF-α secretion in THP-1 macrophages, LPS + Nigericin. The class given is cell-based. The note with it: human THP-1 macrophages, FIG. 5D. As for the experimental part:
as §1
To confirm the inhibitory effect of CLM-022 in human macrophages, THP-1 cells, a human leukemia monocytic cell line, were differentiated into macrophages using phorbol 12-myristate-13-acetate (PMA, 100 ng/ml) treatment for one day. The THP-1 macrophages were then treated with LPS (100 ng/ml) for 3 hours to induce the expression of inflammatory genes. Subsequently, the THP-1 cells were treated with CLM-022 or MCC950 in a dose range of 0-10 μM for 30 minutes. Then, to fully activate NLRP3-dependent inflammasome activity, Nigericin (10 μM) was added to the THP-1 cells for an additional 60 min.

“Also recorded” adds a separate entry of the source.

Regarding `CC1=C(O)C(=O)C=C2C1=CC=C1[C@@]2(C)CC[C@@]2(C)[C@@H]3C[C@](C)(N(C)C(=O)C(=O)N(C)C)CC[C@]3(C)CC[C@]12C` [Compound 22, N′-[(2R,4aS,6aR,6aS,14aS,14bR)-10-hydroxy-2,4a,6a,6a,9,14a-hexamethyl-11-oxo-1,3,4,5,6,13,14,14b-octahydropicen-2-yl]-N,N,N′-trimethyl-oxamide], the IC50 in experiment [1] (Homo sapiens, THP-1, LPS and Nigericin, 0 μM to 10 μM, FIG. 7B, read-out: IC50 for LDH release (normalized)) was determined as 12.4 nM. In experiment [1] (THP-1, LPS and Nigericin, FIG. 7B), the “inhibition of LDH release” value is “significantly inhibited release of LDH”. In addition, the “higher potency relative to MCC950 in preventing pyroptosis” value in experiment [1] (from LDH release IC50 values, FIG. 7B) is recorded as 10 fold. The “inhibition of inflammasome-induced pyroptosis” value in experiment [1] is “greater capacity to inhibit inflammasome-induced pyroptosis in human THP-1 macrophages”; in experiment [1] (listed as CLM-022) it was “greater capacity than the benchmark molecule, MCC950, to inhibit inflammasome-induced pyroptosis in human THP-1 macrophages”. In addition, the “suppression of TNF-α secretion” value in experiment [2] was “neither CLM-022 nor MCC950 suppressed TNF-α secretion”. In addition, the minimal effective concentration in experiment [3] (Homo sapiens, FIG. 3C, read-out: concentration at which a strong inhibitory function was observed (as low as)) was no more than 0.025 µM. Also, the “inhibition of cellular ASC+FLICA+ specks / inflammasome complex” value in experiment [3] (FIG. 3B) is “strong inhibitory effect; also recorded: inhibited NLRP3 inflammasome activity in THP1 and the cellular inflammasome complex as visualized by Amnis analysis”. Moreover, in experiment [4], the “expression of LPS-induced NF-kB target proteins iNOS, COX2, NLRP3, and IL-1β” value was “markedly inhibited expression of the LPS-induced NF-kB target proteins iNOS, COX2, NLRP3, and IL-1β in a dose-dependent fashion”. Further, the “inhibition of TNF-α secretion” value in experiment [5] is on record as “but not TNF-α”.

One may read the IC50 as the concentration needed to halve the response being measured.

(Values after US20260356879A1, “CELASTROL DERIVATIVES” (Celloram Inc., priority 2022, published 2026).)
